{"source": "paper PMC6235670", "about": "“An mTOR Signaling Modulator Suppressed Heterotopic Ossification of Fibrodysplasia Ossificans Progressiva” (Stem Cell Reports, 2018)", "key": {"[1]": {"test_system": "FOP-ACVR1 (R206H) conditional transgenic mice", "method": "(§1) MTOR s604 […]tt […]at […]\nCardiotoxin-induced HO model in human FOP-ACVR1 conditional transgenic mice. Female hFOP-ACVR1 conditional transgenic mice (Beard et al., 2006; Hino et al., 2017; Ohnishi et al., 2014; Yamada et al., 2013) (f5-6 offspring of chimeric mice, age- and body weight- matched between groups) were used between 16 and 20 weeks of age. Mice were administered 2 mg/mL Dox in their drinking water supplemented with 10 mg / mL sucrose to induce FOP-ACVR1. Cardiotoxin (9.1 µg/mouse, Latoxan) was injected into the right gastrocnemius muscle to initiate skeletal muscle injury and subsequent heterotopic bone formation (Chakkalakal et al., 2012). Test compounds (16% DMSO in 0.5 w/v% Methyl Cellulose 400) were intraperitoneally administered once a day, five times a week. Mice were analyzed three weeks after injection.\n(§2) For X- ray images, mice were anesthetized with isoflurane (5% for induction, 2-3% for maintenance, Abbvie), immobilized and X-rayed using µFX-1000 (Fujifilm) or DX-50 (Faxitron Bioptics). µCT images were scanned using X-ray CT systems (inspeXio SMX-100CT, Shimadzu) and analyzed with TRI/3D-BON software (Ratoc System Engineering) according to the manufacturer's instructions. Four weeks after injection, the injected sites were harvested, fixed with 4% paraformaldehyde for 24 h, embedded in paraffin, and sectioned and stained with HE, von Kossa, Safranin O and anti-Collagen I antibody as previously described ( Hino et al., 2015; U med a […]\nBMP-7-induced HO model mice. […] Mice were analyzed 2 weeks after injection. […]\nHistological analysis of growth plates chondrocytes. Knee joints were obtained from BMP-7-injected and test compounds-administrated C57BL/6NJcl mice after 2 weeks treatment and fixed, paraffin-embedded, and sectioned and stained with Safranin O. The thickness of the proliferative and hypertrophic zones of the growth plate were measured using ImageJ software on images obtained using a Keyence microscope (Keyence A merica). […]"}, "[2]": {"test_system": "TGF-β signaling (CAGA-Luc)", "test": "CAGA-Luc reporter assay in FOP-iMSCs", "assay_type": "cell-based, human", "details": "activin A and compounds for 3 hr", "method": "FOP-iMSCs transiently transfected with BRE-Luc (A) or CAGA-Luc (B) with CMV-Renilla were stimulated with activin A and compounds for 16 hr (A) or 3 hr (B). […] One day after siRNA transfection, chondrogenic induction with activin A was initiated, and after 7 days the cells were harvested. […] FOP-iMSCs cultured with 10% FBS were treated with 100 nM rapamycin (Rapa) or TAK 165 (TAK) for 2 hr, and the cells were harvested. […] 1 μM TAK, 1 μM CP (CP-724714, another selective ERBB2 inhibitor), or 10 nM Rapa were applied in the experiments."}, "[3]": {"test_system": "BMP-7-induced HO model mice (C57BL/6)", "test": "BMP-7-induced HO model mice", "from_the_text": "as §1\nas §2, with “stained” for “stained with HE, von Kossa, Safranin O and anti-Collagen I antibody as previously described ( Hino et al., 2015; U med a”\nBMP-7-induced HO model mice. BMP -7 (2 µ g/mouse) was injected into the right gastrocnemius muscle of C57BL/6NJcl mice (6-8 weeks, male, CLEA Japan), and compounds were administered once a day, five times a week (intraperitoneal administration). Mice were analyzed 2 weeks after injection. […]"}}, "data": [{"smiles": "FC(F)(F)c1ccc(/C=C/c2nc(COc3ccc(CCCCn4ccnn4)cc3)co2)cc1", "note": "[TAK 165, mubritinib]", "values": [{"measurement": "body weight change compared with vehicle", "setting": "[1]; 5 mg/kg i.p.", "value": "No apparent differences"}, {"measurement": "von Kossa or COL1 staining of CTX-injected site", "setting": "[1]; 5 mg/kg i.p.", "value": "less positive staining"}, {"measurement": "heterotopic ossification (heterotopic bone volume)", "setting": "[1]; 5 mg/kg i.p. once daily, five times a week, 3 weeks after CTX", "value": "significantly suppressed"}, {"measurement": "CAGA-Luc (TGF-β-responsive luciferase reporter)", "setting": "[2]", "value": "did not affect"}, {"measurement": "body weight change compared to vehicle group", "setting": "[3]; i.p. for 2 weeks, n=5", "value": "No significant differences"}, {"measurement": "BMP-7-induced HO (heterotopic bone volume)", "setting": "[3]; i.p. once daily 5 times a week for 2 weeks", "value": "suppressed"}, {"measurement": "# of HO (> 20 mm3): number of mice harboring HO", "setting": "[3]; i.p. once daily 5 times a week for 2 weeks, N = 5", "value": "1/5"}]}]}
